Values of other authors, collected in patent US20220288158A1, “NOVEL ENTERIC COMBINATION THERAPY” (priority 2009, published 2022).

Tested on: patients with constipation
Details: for effect on bowel activity when used in constipation: literature, Brandt L J et al 2009

Compound | effect on bowel activity when used in constipation | use of vancomycin alone in constipation (not all patients respond, and respond but partially)
CC[C@H]1OC(=O)[C@H](C)[C@@H](O[C@H]2C[C@@](C)(OC)[C@@H](O)[C@H](C)O2)[C@H](C)[C@@H](O[C@@H]2O[C@H](C)C[C@H](N(C)C)[C@H]2O)[C@](C)(OC)C[C@@H](C)C(=O)[C@H](C)[C@@H](O)[C@]1(C)O [clarithromycin] | variable and not reproducible | –
Cc1ncc([N+](=O)[O-])n1CCO [metronidazole] | variable and not reproducible | –
CO[C@H]1/C=C/O[C@@]2(C)Oc3c(C)c(O)c4c(O)c(c5c(nc6cc(C)ccn65)c4c3C2=O)NC(=O)/C(C)=C\C=C\[C@H](C)[C@H](O)[C@@H](C)[C@@H](O)[C@@H](C)[C@H](OC(C)=O)[C@@H]1C [rifaximin] | variable and not reproducible | –
CN[C@H](CC(C)C)C(=O)N[C@H]1C(=O)N[C@@H](CC(N)=O)C(=O)N[C@H]2C(=O)N[C@H]3C(=O)N[C@H](C(=O)N[C@H](C(=O)O)c4cc(O)cc(O)c4-c4cc3ccc4O)[C@H](O)c3ccc(c(Cl)c3)Oc3cc2cc(c3O[C@@H]2O[C@H](CO)[C@@H](O)[C@H](O)[C@H]2O[C@H]2C[C@](C)(N)[C@H](O)[C@H](C)O2)Oc2ccc(cc2Cl)[C@H]1O [vancomycin] | – | inefficient
neomycin | variable and not reproducible | –
